From BindingDB's records for doi:10.1021/jm980108d (Prassis Istituto Di Ricerche Sigma-Tau, 1998)

Target: Sodium/potassium-transporting ATPase (Canis familiaris)
Assay: Compound was evaluated for its ability to inhibit the specific [3H]-ouabain binding to dog kidney Na+/K+ ATPase

Structure (SMILES) | IC50
C[C@]12CC[C@H](O)C[C@H]1CC[C@@H]1[C@@H]2CC[C@]2(C)[C@@H](/C=C/C=O)CC[C@]12O | 60 nM
C[C@H]1/C(=C/C(=O)OCCN(C)C)CCC2C1C(=O)C[C@H]1C(C)(C)[C@@H](O)CC[C@]21C (stereo partly drawn) [[(1R,4bR,7S,8aR)-7-Hydroxy-1,4b,8,8-tetramethyl-10-oxo-dodecahydro-phenanthren-(2E)-ylidene]-acetic acid 2-dimethylamino-ethyl ester] | 100 nM
